From US9580416B2, “Inhibitors of Bruton's tyrosine kinase” (PHARMACYCLICS LLC, priority 2014, dated 2017)

How the values were obtained:
Type in all cases: biochemical
Btk = Btk (Homo sapiens, UniProt Q06187); assay: Btk kinase activity, TR-FRET assay; conditions: read-out: Btk (IC50)
Procedure: (§1) Btk kinase activity is determined using a time-resolved fluorescence resonance energy transfer (TR-FRET) methodology. Measurements are performed in a reaction volume of 50 μL using 96-well assay plates. Kinase enzyme, inhibitor, ATP (at the Km for the kinase), and 1 […] (Biotin-AVLESEEELYSSARQ-NH2) are incubated in a reaction buffer composed of 20 mM Tris, 50 mM NaCl, MgCl2 (5-25 mM depending on the kinase), MnCl2 (0-10 mM), 1 mM DTT, 0.1 mM EDTA, 0.01% bovine serum albumin, 0.005% Tween-20, and 10% DMSO at pH 7.4 for one hour. The reaction is quenched by the addition of 1.2 equivalents of EDTA (relative to divalent cation) in 25 μL of 1× Lance buffer (Perkin-Elmer). Streptavidin-APC (Perkin-Elmer) and Eu-labeled p-Tyr100 antibody (Perkin-Elmer) in 1× Lance buffer are added in a 25 μL volume to give final concentrations of 100 nM and 2.5 nM, respectively, and the mixture is allowed to incubate for one hour. The TR-FRET signal is measured on a multimode plate reader with an excitation wavelength (λEx) of 330 nm and detection wavelengths (λEm) of 615 and 665 nm. Activity is determined by the ratio of the fluorescence at 665 nm to that at 615 nm. For each compound, enzyme activity is measured at various concentrations of compound. Negative control reactions are performed in the absence of inhibitor in replicates of six, and two no-enzyme controls are used to determine baseline fluorescence levels. Inhibition constants, Ki(app), ware obtained using the program BatchKi (Kuzmic et al. (2000), Anal. Biochem. 286:45-50). IC50s are obtained according to the equation: IC50={Ki(app)/(1+[ATP]/Km^ATP)}+[E]total/2;
(§2) For all kinases, [ATP]=Km^ATP, [Btk]total=0.5 nM and [Lck]total=6 nM.

Lck = Lck (Homo sapiens, UniProt P06239); assay: Lck kinase activity, TR-FRET assay; conditions: read-out: LCK (IC50)
Sequence of Lck (P06239 whole entry, species assumed): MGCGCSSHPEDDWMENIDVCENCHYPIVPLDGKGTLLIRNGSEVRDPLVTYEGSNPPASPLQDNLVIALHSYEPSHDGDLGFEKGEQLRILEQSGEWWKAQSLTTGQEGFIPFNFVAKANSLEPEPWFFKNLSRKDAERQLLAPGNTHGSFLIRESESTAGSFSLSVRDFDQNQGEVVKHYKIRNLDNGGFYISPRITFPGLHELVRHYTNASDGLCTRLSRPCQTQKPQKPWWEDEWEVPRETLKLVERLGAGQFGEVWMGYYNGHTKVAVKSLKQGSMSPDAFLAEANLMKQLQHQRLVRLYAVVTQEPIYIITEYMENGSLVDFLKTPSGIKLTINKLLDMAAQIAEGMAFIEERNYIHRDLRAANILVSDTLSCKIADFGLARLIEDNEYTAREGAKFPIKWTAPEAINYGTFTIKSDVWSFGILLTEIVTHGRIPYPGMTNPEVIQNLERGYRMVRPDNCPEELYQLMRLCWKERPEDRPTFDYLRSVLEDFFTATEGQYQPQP
Procedure: as §1, §2

EGFR = EGFR (Homo sapiens, UniProt P00533); assay: Inhibition of a panel of kinases, in vitro HotSpot kinase assay: EGFR
Sequence of EGFR (P00533 25-1210): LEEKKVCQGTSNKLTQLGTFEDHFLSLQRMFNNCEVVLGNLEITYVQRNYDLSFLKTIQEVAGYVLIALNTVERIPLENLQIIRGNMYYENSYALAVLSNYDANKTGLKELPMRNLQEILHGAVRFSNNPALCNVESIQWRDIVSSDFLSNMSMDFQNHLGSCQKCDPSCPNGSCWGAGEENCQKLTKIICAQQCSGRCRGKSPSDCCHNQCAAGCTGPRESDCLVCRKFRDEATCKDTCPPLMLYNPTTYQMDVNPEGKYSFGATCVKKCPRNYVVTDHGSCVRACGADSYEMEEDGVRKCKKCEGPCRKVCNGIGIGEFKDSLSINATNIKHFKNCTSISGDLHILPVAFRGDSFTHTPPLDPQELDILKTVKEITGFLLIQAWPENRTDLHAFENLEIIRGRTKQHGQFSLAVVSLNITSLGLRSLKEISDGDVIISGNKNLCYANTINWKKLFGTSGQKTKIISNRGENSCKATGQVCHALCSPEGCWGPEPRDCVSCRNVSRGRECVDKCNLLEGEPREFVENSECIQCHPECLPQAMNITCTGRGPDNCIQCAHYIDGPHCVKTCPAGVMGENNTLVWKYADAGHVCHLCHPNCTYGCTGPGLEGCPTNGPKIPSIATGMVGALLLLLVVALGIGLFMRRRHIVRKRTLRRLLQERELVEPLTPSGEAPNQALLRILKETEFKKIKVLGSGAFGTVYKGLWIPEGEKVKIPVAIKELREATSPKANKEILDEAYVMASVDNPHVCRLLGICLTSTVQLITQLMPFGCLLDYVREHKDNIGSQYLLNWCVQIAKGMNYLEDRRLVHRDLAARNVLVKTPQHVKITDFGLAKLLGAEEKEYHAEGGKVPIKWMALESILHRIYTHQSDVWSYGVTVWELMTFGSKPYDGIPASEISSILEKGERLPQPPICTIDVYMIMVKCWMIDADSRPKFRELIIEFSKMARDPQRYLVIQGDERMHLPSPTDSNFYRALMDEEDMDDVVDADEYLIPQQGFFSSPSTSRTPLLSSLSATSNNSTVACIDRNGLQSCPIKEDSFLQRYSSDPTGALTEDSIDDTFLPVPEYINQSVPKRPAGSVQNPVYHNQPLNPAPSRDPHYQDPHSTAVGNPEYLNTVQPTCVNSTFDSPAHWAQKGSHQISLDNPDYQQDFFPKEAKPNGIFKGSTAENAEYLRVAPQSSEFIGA
Procedure: The degree of inhibition of a panel of kinases is determined using the in vitro HotSpot kinase assay (purified enzymes, ^33P-ATP, an appropriate substrate and 1 uM ATP).

Sequence of Btk (Q06187 whole entry): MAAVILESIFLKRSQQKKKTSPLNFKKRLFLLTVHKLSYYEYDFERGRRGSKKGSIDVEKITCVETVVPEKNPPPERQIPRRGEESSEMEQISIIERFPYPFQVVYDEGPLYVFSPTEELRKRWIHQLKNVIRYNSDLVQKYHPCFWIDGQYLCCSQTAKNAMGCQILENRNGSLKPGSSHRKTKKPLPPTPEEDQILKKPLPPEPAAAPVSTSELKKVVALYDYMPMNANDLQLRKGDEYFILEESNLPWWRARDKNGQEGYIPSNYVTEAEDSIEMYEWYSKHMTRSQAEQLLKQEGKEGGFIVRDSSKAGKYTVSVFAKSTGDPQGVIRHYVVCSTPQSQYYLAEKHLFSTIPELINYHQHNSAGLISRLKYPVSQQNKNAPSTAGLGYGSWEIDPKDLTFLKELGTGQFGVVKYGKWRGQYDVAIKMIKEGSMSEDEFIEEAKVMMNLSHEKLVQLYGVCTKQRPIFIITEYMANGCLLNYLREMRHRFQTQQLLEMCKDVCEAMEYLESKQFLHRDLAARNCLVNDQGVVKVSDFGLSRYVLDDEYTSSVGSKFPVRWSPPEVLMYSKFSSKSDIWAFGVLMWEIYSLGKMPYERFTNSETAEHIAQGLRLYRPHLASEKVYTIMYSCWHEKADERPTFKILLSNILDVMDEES

IC50 (Btk) [µM]	IC50 (Lck) [µM]	IC50 (EGFR) [µM]	Compound
< 0.1	0.1 to 1	–	CC1(C(=O)N2CCC[C@@H](Nc3n[nH]c4nccc(Oc5ccc(C(=O)Nc6cc(C(F)(F)F)ccn6)cc5)c34)C2)COC1 [compound 84, 4-[(3-{[(3R)-1-(3-methyloxetane-3-carbonyl)piperidin-3-yl]amino}-1H-pyrazolo[3,4-b]pyridin-4-yl)oxy]-N-[4-(trifluoromethyl)pyridin-2-yl]benzamide]
0.1 to 1	0.1 to 1	0.1 to 1	CNC(=O)/C(F)=C/c1cccc(Nc2n[nH]c3nccc(Oc4ccc(Oc5ccccc5)cc4)c23)c1 [compound 31, (2Z)-2-fluoro-N-methyl-3-(3-{[4-(4-phenoxyphenoxy)-1H-pyrazolo[3,4-b]pyridin-3-yl]amino}phenyl)prop-2-enamide]
< 0.1	0.1 to 1	1 to 10	CN(C)C/C=C/C(=O)N1CC[C@@H](Nc2n[nH]c3nccc(Oc4ccc(Oc5ccccc5)cc4C#N)c23)C1 [compound 34, 2-[(3-{[(3R)-1-[(2E)-4-(dimethylamino)but-2-enoyl]pyrrolidin-3-yl]amino}-1H-pyrazolo[3,4-b]pyridin-4-yl)oxy]-5-phenoxybenzonitrile]
1 to 10	> 10	> 10	Cc1cccc2nc(-c3ccc(Oc4ccnc5[nH]nc(N[C@@H]6CCCN(C(=O)C7CCN(C)CC7)C6)c45)cc3)oc12 [compound 184]
0.1 to 1	> 10	> 10	CN(C/C=C/C(=O)N1CC[C@@H](Nc2n[nH]c3nccc(Oc4ccc(C(=O)Nc5ccncn5)cc4)c23)C1)C1CC1 [compound 64]
< 0.1	0.1 to 1	1 to 10	N#Cc1ccnc(NC(=O)c2ccc(Oc3ccnc4[nH]nc(NC5CCOCC5)c34)cc2)c1 [compound 77, N-(4-cyanopyridin-2-yl)-4-({3-[(oxan-4-yl)amino]-1H-pyrazolo[3,4-b]pyridin-4-yl}oxy)benzamide]
< 0.1	< 0.1	< 0.1	c1ccc(Oc2ccc(Oc3ccnc4[nH]nc(NC5CCOCC5)c34)cc2)cc1 [compound 47]
0.1 to 1	> 10	> 10	CN(C)C/C=C/C(=O)N1CC[C@@H](Nc2n[nH]c3nccc(Oc4ccn(Cc5ccccc5)c(=O)c4)c23)C1 [compound 15, 1-benzyl-4-[(3-{[(3R)-1-[(2E)-4-(dimethylamino)but-2-enoyl]pyrrolidin-3-yl]amino}-1H-pyrazolo[3,4-b]pyridin-4-yl)oxy]-1,2-dihydropyridin-2-one]
< 0.1	0.1 to 1	–	CC1(C(=O)N2CCC[C@@H](Nc3n[nH]c4nccc(Oc5ccc(C(=O)Nc6cc(C#N)ccn6)cc5)c34)C2)COC1 [compound 83, N-(4-cyanopyridin-2-yl)-4-[(3-{[(3R)-1-(3-methyloxetane-3-carbonyl)piperidin-3-yl]amino}-1H-pyrazolo[3,4-b]pyridin-4-yl)oxy]benzamide]
0.1 to 1	> 10	> 10	CCNC(=O)N1CCC[C@@H](Nc2n[nH]c3nccc(Oc4ccc(-c5nc6cccc(C)c6o5)cc4)c23)C1 [compound 182]
< 0.1	1 to 10	> 10	Cc1ccnc(NC(=O)c2ccc(Oc3ccnc4[nH]nc(N[C@@H]5CCCN(C(=O)C6(C)CCC6)C5)c34)cc2)c1 [compound 88, 4-[(3-{[(3R)-1-(1-methylcyclobutanecarbonyl)piperidin-3-yl]amino}-1H-pyrazolo[3,4-b]pyridin-4-yl)oxy]-N-(4-methylpyridin-2-yl)benzamide]
< 0.1	0.1 to 1	< 0.1	CNC(=O)/C(C#N)=C\c1cccc(Nc2n[nH]c3nccc(Oc4ccc(Oc5ccccc5)cc4)c23)c1 [compound 29, (2Z)-2-cyano-N-methyl-3-(3-{[4-(4-phenoxyphenoxy)-1H-pyrazolo[3,4-b]pyridin-3-yl]amino}phenyl)prop-2-enamide]
< 0.1	0.1 to 1	–	N#Cc1ccnc(NC(=O)c2ccc(Oc3ccnc4[nH]nc(N[C@H]5CC[C@H](O)CC5)c34)cc2)c1 [compound 82, N-(4-cyanopyridin-2-yl)-4-[(3-{[(R,4R)-4-hydroxycyclohexyl]amino}-1H-pyrazolo[3,4-b]pyridin-4-yl)oxy]benzamide]
< 0.1	> 10	0.1 to 1	CN(C)C/C=C/C(=O)N1CC[C@@H](Nc2n[nH]c3nccc(Oc4ccc(Cl)cc4)c23)C1 [compound 3, (2E)-1-[(3R)-{[4-(4-chlorophenoxy)-1H-pyrazolo[3,4-b]pyridin-3-yl]amino}pyrrolidin-1-yl]-4-(dimethylamino)but-2-en-1-one]
< 0.1	0.1 to 1	1 to 10	CCC(=O)N1CC[C@@H](Nc2n[nH]c3nccc(Oc4ccc(C(=O)Nc5cc(C(F)(F)F)ccn5)cc4)c23)C1 [compound 66]
> 10	–	> 10	c1ccc(Oc2ccc(Oc3ncnc4[nH]nc(N[C@@H]5CCCNC5)c34)cc2)cc1 [compound 50]

IC50 (Btk) [µM]	IC50 (Lck) [µM]	IC50 (EGFR) [µM]	Compound
> 10	–	–	Cc1cnc(NC(=O)[C@H]2CC[C@H](Oc3ccnc4[nH]nc(N[C@@H]5CCCN(C(=O)/C=C/CN(C)C6CC6)C5)c34)CC2)s1 [compound 152]
< 0.1	–	–	CC#CC(=O)N1CC[C@@H](Nc2n[nH]c3nccc(Oc4ccc(C(=O)Nc5cc(C(F)(F)F)ccn5)cc4)c23)C1 [compound 174]
0.1 to 1	–	–	O=C(NC1CCCCC1)c1cccc(Oc2ccnc3[nH]nc(N[C@@H]4CCCNC4)c23)c1 [compound 254, (R)—N-cyclohexyl-3-(3-(piperidin-3-ylamino)-1H-pyrazolo[3,4-b]pyridin-4-yloxy)benzamide]
< 0.1	–	–	C=CC(=O)N1CCC[C@@H](Nc2n[nH]c3nccc(Oc4ccc(C(=O)N5CCCC(C(F)(F)F)C5)cc4)c23)C1 (some centres unmarked) [compound 160]
> 10	–	–	CC(C)NC(=O)Nc1ccc(Oc2ccnc3[nH]nc(N[C@@H]4CCCN(C(=O)/C=C/CN(C)C5CC5)C4)c23)cc1 [compound 147]
0.1 to 1	–	–	Cc1cc(NC(=O)c2cccc(Oc3ccnc4[nH]nc(N[C@@H]5CCCNC5)c34)c2)ccc1C(C)C [compound 258, (R)—N-(4-isopropyl-3-methylphenyl)-3-(3-(piperidin-3-ylamino)-1H-pyrazolo[3,4-b]pyridin-4-yloxy)benzamide]
0.1 to 1	–	–	O=C(c1cccc(Oc2ccnc3[nH]nc(N[C@@H]4CCCNC4)c23)c1)N1CCOCC1 [compound 256, (R)-morpholino(3-(3-(piperidin-3-ylamino)-1H-pyrazolo[3,4-b]pyridin-4-yloxy)phenyl)methanone]
< 0.1	–	–	C=CC(=O)N1CC[C@H](CNc2n[nH]c3nccc(Oc4ccc(Oc5ccccc5)cc4)c23)C1 [compound 268, (R)-1-(3-((4-(4-phenoxyphenoxy)-1H-pyrazolo[3,4-b]pyridin-3-ylamino)methyl)pyrrolidin-1-yl)prop-2-en-1-one]
0.1 to 1	–	–	c1ccc(Oc2ccc(Oc3ccnc4[nH]nc(NCC5CCNCC5)c34)cc2)cc1 [compound 262, 4-(4-phenoxyphenoxy)-N-(piperidin-4-ylmethyl)-1H-pyrazolo[3,4-b]pyridin-3-amine]
0.1 to 1	–	–	CN(C)C/C=C/C(=O)N1CC[C@@H](Nc2n[nH]c3nccc(Oc4ccc(Oc5ccccc5)cc4C(N)=O)c23)C1 [compound 41]
0.1 to 1	–	–	C=CC(=O)N1CCC[C@@H](Nc2n[nH]c3nccc(Oc4ccc(-c5cc(C(F)(F)F)ccn5)cc4)c23)C1 [compound 155]
0.1 to 1	–	–	O=C(c1cccc(Oc2ccnc3[nH]nc(N[C@@H]4CCCNC4)c23)c1)N1CCCCC1 [compound 255, (R)-piperidin-1-yl(3-(3-(piperidin-3-ylamino)-1H-pyrazolo[3,4-b]pyridin-4-yloxy)phenyl)methanone]
< 0.1	–	–	C=CC(=O)N1CCC[C@@H](Nc2n[nH]c3nccc(Oc4ccc(C(=O)Nc5ncc(C(F)(F)F)s5)cc4)c23)C1 [compound 208, 4-[(3-{[(3R)-1-(prop-2-enoyl)piperidin-3-yl]amino}-1H-pyrazolo[3,4-b]pyridin-4-yl)oxy]-N-[5-(trifluoromethyl)-1,3-thiazol-2-yl]benzamide]
0.1 to 1	–	–	CC(=O)N1CCN(C(=O)c2cccc(Oc3ccnc4[nH]nc(N[C@@H]5CCCNC5)c34)c2)CC1 [compound 257, (R)-1-(4-(3-(3-(piperidin-3-ylamino)-1H-pyrazolo[3,4-b]pyridin-4-yloxy)benzoyl)piperazin-1-yl)ethanone]
< 0.1	–	–	C=CC(=O)N1CC[C@@H](N(C)c2n[nH]c3nccc(Oc4ccc(Cl)cc4)c23)C1 [compound 2, 1-[(3R)-3-{[4-(4-chlorophenoxy)-1H-pyrazolo[3,4-b]pyridin-3-yl](methyl)amino}pyrrolidin-1-yl]prop-2-en-1-one]
